Experiments:
[1] = Inhibition of hydrogen potassium ATPase in goat stomach mucosal membrane assessed as decrease in inorganic phosphate production using ATP as substrate after 10 to 15 mins by spectrophotometric analysis; format: cell membranes, Capra hircus
Erythrocyte [2] = test: Anti-inflammatory activity in human RBC assessed as membrane stabilization; format: functional, cell-based
Erythrocyte [3] = test: Anti-inflammatory activity in human RBC assessed as membrane stabilization relative to control; format: functional; design: concentration or dose not given beside the values
Capra hircus = organism: Capra hircus; test: Inhibition of hydrogen potassium ATPase in goat stomach mucosal membrane assessed as decrease in inorganic phosphate production using ATP as substrate after 10 to 15 mins by spectrophotometric analysis relative to omeprazole; format: cell membranes; design: concentration or dose not given beside the values

Structure (SMILES)	IC50 [1] [nM]	Ki [1] [nM]	IC50 (Erythrocyte [2]) [nM]	Activity (Erythrocyte [3]) [%]	inhibition (Capra hircus) [%]
COc1cc(CS(=O)(=O)c2nc3ccccc3[nH]2)ccc1OCc1nccc(OCC(F)(F)F)c1C	1290	25 to 1240	1310	74.21	74.9
COc1ccc2[nH]c(S(=O)(=O)Cc3ccc(OCc4nccc(OC)c4OC)c(OC)c3)nc2c1	918	25 to 1240	898	78.42	78.2
COCCCOc1ccnc(COc2ccc(CS(=O)(=O)c3nc4cc(OC)ccc4[nH]3)cc2OC)c1C	814	25 to 1240	817	79.41	80.2
COCCCOc1ccnc(COc2ccc(CS(=O)(=O)c3nc4cc(OC(F)F)ccc4[nH]3)cc2OC)c1C	124	25 to 1240	142	96.42	96.3
COc1cc(CS(=O)(=O)c2nc3ccccc3[nH]2)ccc1OCc1ncc(C)c(OC)c1C	1680	25 to 1240	1820	70.41	70.5
O=C(O)Cc1ccccc1Nc1c(Cl)cccc1Cl [DICLOFENAC]	–	–	942	82.24	–
COc1cc(CS(=O)(=O)c2nc3cc(OC(F)F)ccc3[nH]2)ccc1OCc1nccc(OCC(F)(F)F)c1C	1660	25 to 1240	1880	70.28	70.6
COc1ccc2[nH]c([S+]([O-])Cc3ncc(C)c(OC)c3C)nc2c1 (centres undefined) [OMEPRAZOLE]	980 to 1010	–	–	–	82.1
COc1ccc2[nH]c(S(=O)(=O)Cc3ccc(OCc4ncc(C)c(OC)c4C)c(OC)c3)nc2c1	1150	25 to 1240	1210	76.23	76.3
COc1cc(CS(=O)(=O)c2nc3cc(OC(F)F)ccc3[nH]2)ccc1OCc1nccc(OC)c1OC	198	25 to 1240	186	94.11	94.4
COc1ccc2[nH]c(S(=O)(=O)Cc3ccc(OCc4nccc(OCC(F)(F)F)c4C)c(OC)c3)nc2c1	1460	25 to 1240	1760	71.58	72
COc1cc(CS(=O)(=O)c2nc3ccccc3[nH]2)ccc1OCc1nccc(OC)c1OC	228	25 to 1240	212	91.12	92
COCCCOc1ccnc(COc2ccc(CS(=O)(=O)c3nc4ccccc4[nH]3)cc2OC)c1C	355	25 to 1240	355	88.45	81
COc1cc(CS(=O)(=O)c2nc3cc(OC(F)F)ccc3[nH]2)ccc1OCc1ncc(C)c(OC)c1C	1360	25 to 1240	1420	73.56	73.2

Source: ChEMBL document CHEMBL4190327, “Substituted methoxybenzyl-sulfonyl-1H-benzo[d]imidazoles evaluated as effective H+/K+-ATPase inhibitors and anti-ulcer therapeutics” (Eur J Med Chem, 2017)
